This note sets out measurements from US20260265238A1, “COMPOUNDS AND PHARMACEUTICAL COMPOSITIONS THAT DEGRADE SWI/SNF-RELATED MATRIX-ASSOCIATED ACTIN-DEPENDENT REGULATOR OF CHROMATIN SUBFAMILY A” (Plexium, Inc., priority 2023, published 2026).

In general, DC50 refers to the concentration giving 50% degradation. Low values mean degradation at low concentration, high ones degradation only at high concentration. Usually inhibition stands for the drop in the measured response relative to a control, in per cent.

Some results are limits rather than exact numbers.

Test [1] addresses T1, SMARCA4-HiBiT HeLa cells (protein which is expressed from the SMARCA4 gene) (Homo sapiens, UniProt P51532).
T1 construct: protein which is expressed from the SMARCA2 and SMARCA4 genes; host or cells: HeLa (SMARCA4-HiBiT engineered line)
Briefly: SMARCA4 degradation assay (HiBiT-fusion HeLa cell line, 24 h, luminescence). Type of test: cell-based. The essentials:
(§1)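 In this 24-hour cellular degradation readout, HiBiT-tagged HeLa lines received compound at up to typically 10 μM down to 300 pM in 10 points. After lysis with LgBiT and substrate, luminescence signals were used to build dose-response curves for DC50.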

The target in test [2] is T2, SMARCA2-HiBiT HeLa cells (protein which is expressed from the SMARCA2 gene) (Homo sapiens, UniProt P51531).
T2 construct: protein which is expressed from the SMARCA2 and SMARCA4 genes; host or cells: HeLa (SMARCA2-HiBiT engineered line)
T2 sequence (P51531 whole entry): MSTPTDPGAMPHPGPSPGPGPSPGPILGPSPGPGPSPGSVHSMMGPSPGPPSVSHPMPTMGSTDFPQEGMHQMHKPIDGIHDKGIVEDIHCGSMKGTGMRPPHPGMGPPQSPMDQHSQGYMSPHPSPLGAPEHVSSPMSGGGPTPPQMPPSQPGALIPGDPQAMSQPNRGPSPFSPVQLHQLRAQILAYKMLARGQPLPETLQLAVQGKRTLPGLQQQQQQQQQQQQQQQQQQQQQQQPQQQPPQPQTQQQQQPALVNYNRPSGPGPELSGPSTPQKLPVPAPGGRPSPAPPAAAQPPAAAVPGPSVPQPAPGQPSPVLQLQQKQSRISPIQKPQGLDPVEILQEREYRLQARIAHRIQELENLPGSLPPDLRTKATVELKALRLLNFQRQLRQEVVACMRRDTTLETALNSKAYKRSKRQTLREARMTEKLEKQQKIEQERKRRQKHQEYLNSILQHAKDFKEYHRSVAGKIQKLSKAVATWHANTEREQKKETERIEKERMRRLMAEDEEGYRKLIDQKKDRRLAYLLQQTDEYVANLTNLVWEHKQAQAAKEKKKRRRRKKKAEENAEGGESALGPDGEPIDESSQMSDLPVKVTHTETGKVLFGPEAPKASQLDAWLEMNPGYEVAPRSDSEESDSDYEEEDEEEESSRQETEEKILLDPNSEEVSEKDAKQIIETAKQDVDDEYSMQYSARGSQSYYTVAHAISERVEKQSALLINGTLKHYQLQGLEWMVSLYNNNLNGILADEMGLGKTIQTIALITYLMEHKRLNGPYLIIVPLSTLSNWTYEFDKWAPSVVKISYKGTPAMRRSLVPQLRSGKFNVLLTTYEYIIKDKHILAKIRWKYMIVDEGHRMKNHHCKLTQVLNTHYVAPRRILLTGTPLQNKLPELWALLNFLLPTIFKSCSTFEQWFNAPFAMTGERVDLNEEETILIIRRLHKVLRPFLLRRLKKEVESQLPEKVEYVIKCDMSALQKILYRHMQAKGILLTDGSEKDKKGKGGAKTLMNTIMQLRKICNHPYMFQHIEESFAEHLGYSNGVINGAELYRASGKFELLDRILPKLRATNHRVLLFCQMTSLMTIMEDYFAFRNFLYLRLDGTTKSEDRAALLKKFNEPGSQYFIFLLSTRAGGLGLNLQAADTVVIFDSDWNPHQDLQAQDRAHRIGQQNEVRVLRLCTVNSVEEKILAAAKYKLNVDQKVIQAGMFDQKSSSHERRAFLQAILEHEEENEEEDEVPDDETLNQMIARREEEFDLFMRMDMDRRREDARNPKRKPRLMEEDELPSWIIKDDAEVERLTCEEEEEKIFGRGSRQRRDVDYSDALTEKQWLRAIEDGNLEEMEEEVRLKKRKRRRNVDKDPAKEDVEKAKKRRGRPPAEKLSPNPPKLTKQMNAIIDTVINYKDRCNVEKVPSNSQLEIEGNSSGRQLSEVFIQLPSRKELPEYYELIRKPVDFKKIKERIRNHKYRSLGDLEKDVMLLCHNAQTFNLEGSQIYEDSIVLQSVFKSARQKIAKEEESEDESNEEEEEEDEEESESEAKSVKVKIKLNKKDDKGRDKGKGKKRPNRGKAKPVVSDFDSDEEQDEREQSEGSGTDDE
The test can be described thus: SMARCA2 degradation assay (HiBiT-fusion HeLa cell line, 24 h, luminescence). The class given is cell-based. An outline of the steps: as §1
Background: HiBiT is a short tag that completes a luciferase, so light tracks the accessible tagged protein.

T1 sequence (P51532 whole entry): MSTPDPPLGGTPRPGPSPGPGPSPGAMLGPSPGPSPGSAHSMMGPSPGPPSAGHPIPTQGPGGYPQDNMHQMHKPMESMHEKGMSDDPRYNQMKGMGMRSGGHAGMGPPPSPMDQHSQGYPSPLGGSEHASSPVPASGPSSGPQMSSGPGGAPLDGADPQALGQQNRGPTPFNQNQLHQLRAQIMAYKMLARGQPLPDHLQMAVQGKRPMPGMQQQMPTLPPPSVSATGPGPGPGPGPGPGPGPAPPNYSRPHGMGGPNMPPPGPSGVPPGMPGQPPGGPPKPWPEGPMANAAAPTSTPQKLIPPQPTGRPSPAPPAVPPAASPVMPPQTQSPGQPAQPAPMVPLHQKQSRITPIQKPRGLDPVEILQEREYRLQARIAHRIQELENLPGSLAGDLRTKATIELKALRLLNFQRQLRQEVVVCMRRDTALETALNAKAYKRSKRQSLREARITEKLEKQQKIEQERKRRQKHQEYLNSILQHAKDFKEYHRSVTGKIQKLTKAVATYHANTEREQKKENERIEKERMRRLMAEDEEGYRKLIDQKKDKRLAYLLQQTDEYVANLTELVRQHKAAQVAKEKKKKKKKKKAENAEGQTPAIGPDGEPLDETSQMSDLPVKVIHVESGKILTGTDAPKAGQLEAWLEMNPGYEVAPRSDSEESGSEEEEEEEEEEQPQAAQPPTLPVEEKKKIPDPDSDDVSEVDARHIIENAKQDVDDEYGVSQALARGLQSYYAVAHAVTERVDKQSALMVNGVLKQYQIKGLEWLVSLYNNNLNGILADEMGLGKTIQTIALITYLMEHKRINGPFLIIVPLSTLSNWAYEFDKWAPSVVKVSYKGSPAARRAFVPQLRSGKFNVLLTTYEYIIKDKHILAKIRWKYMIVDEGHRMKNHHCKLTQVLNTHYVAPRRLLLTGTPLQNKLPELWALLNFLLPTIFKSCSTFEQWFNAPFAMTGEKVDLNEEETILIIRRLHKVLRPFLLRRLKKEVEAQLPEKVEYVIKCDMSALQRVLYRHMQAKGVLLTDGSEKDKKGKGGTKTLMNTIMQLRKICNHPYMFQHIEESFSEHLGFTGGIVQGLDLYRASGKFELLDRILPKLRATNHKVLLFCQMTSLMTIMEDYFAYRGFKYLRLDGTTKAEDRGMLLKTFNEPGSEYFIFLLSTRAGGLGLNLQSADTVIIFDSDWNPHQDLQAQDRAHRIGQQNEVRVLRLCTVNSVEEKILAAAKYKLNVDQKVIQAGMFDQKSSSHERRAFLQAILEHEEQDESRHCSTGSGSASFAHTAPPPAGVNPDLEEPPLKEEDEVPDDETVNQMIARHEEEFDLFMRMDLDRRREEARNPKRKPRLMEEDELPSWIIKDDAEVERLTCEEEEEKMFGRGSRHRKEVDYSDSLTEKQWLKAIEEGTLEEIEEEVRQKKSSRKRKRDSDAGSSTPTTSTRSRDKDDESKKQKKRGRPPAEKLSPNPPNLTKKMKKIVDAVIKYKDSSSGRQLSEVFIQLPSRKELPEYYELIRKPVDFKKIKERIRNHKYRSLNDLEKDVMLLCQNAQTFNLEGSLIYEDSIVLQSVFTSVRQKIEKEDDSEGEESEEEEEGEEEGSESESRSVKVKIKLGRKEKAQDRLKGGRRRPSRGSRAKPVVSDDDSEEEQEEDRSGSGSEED

`Nc1nnc(-c2ccccc2O)cc1N1CCCN(c2ccnc(C#CCn3ccn4nccc4c3=O)n2)CC1` [Compound P-109, 5-(3-(4-(4-(3-amino-6-(2-hydroxyphenyl)pyridazin-4-yl)-1,4-diazepan-1-yl)pyrimidin-2-yl)prop-2-yn-1-yl)pyrazolo[1,5-a]pyrazin-4(5H)-one]: in test [1], the DC50 lay within 50 to 500 nM and the inhibition at 1 µM fell in the range of 30 to 70%. In test [2], the DC50 was below 50 nM and the “SMARCA2 % Degradation @ 1 μM” value is “+++ (+++=>70%)”.

In test [1], `Nc1nnc(-c2ccccc2O)cc1N1CCCN(c2ccnc(/C=C/CNC(=O)c3cnc4ccccc4n3)n2)CC1` [Compound P-110, (E)-N-(3-(4-(4-(3-amino-6-(2-hydroxyphenyl)pyridazin-4-yl)-1,4-diazepan-1-yl)pyrimidin-2-yl)allyl)quinoxaline-2-carboxamide] yielded a DC50 of 50 to 500 nM and an inhibition at 1 µM above 70%. Besides, in test [2], the DC50 fell in the range of 50 to 500 nM and the “SMARCA2 % Degradation @ 1 μM” value is listed as “+++ (+++=>70%)”.

As to `Cc1c(C(=O)NC/C=C/c2nccc(N3CCCN(c4cc(-c5ccccc5O)nnc4N)CC3)n2)nn(C)c1C` [Compound P-111, (E)-N-(3-(4-(4-(3-amino-6-(2-hydroxyphenyl)pyridazin-4-yl)-1,4-diazepan-1-yl)pyrimidin-2-yl)allyl)-1,4,5-trimethyl-1H-pyrazole-3-carboxamide], in test [1], the DC50 is 50 to 500 nM and the inhibition at 1 µM lay within 30 to 70%. In test [2], the DC50 is 50 to 500 nM and the “SMARCA2 % Degradation @ 1 μM” value is “+++ (+++=>70%)”.

In test [1], `Nc1nnc(-c2ccccc2O)cc1N1CCCN(c2ccnc(/C=C/CNC(=O)c3cc4ncccn4n3)n2)CC1` [Compound P-112, (E)-N-(3-(4-(4-(3-amino-6-(2-hydroxyphenyl)pyridazin-4-yl)-1,4-diazepan-1-yl)pyrimidin-2-yl)allyl)pyrazolo[1,5-a]pyrimidine-2-carboxamide] registered a DC50 of 50 to 500 nM and an inhibition at 1 µM above 70%. Also, in test [2], the DC50 lay within 50 to 500 nM and the “SMARCA2 % Degradation @ 1 μM” value is reported as “+++ (+++=>70%)”.

In test [1], `NC/C=C/c1nccc(N2CCCN(c3cc(-c4ccccc4O)nnc3N)CC2)n1` [Compound P-113, (E)-2-(6-amino-5-(4-(2-(3-aminoprop-1-en-1-yl)pyrimidin-4-yl)-1,4-diazepan-1-yl)pyridazin-3-yl)phenol] came in with a DC50 of 500 to 5000 nM and an inhibition at 1 µM below 30%. Moreover, in test [2], the DC50 was 50 to 500 nM and the “SMARCA2 % Degradation @ 1 μM” value is “++ (++=30-70%)”.

In test [1], `CC(C)(C)OC(=O)NC/C=C/c1nccc(N2CCCN(c3cc(-c4ccccc4O)nnc3N)CC2)n1` [Compound P-114, tert-butyl (E)-(3-(4-(4-(3-amino-6-(2-hydroxyphenyl)pyridazin-4-yl)-1,4-diazepan-1-yl)pyrimidin-2-yl)allyl)carbamate] displayed a DC50 of 50 to 500 nM and an inhibition at 1 µM of 30 to 70%. For the same compound, in test [2], the DC50 fell in the range of 50 to 500 nM and the “SMARCA2 % Degradation @ 1 μM” value was “+++ (+++=>70%)”.

On to `Cc1nn2ccn(CC#Cc3nccc(N4CCCN(c5cc(-c6ccccc6O)nnc5N)CC4)n3)c(=O)c2c1C` [Compound P-115, 5-(3-(4-(4-(3-amino-6-(2-hydroxyphenyl)pyridazin-4-yl)-1,4-diazepan-1-yl)pyrimidin-2-yl)prop-2-yn-1-yl)-2,3-dimethylpyrazolo[1,5-a]pyrazin-4(5H)-one], for which, in test [1], the DC50 was 50 to 500 nM and the inhibition at 1 µM is 30 to 70%. In addition, in test [2], the DC50 was 50 to 500 nM and the “SMARCA2 % Degradation @ 1 μM” value is “+++ (+++=>70%)”.

In test [1], `Nc1nnc(-c2ccccc2O)cc1N1CCCN(c2ccnc(C#CCn3ncc4ccncc43)n2)CC1` [Compound P-116, 2-(5-(4-(2-(3-(1H-pyrazolo[3,4-c]pyridin-1-yl)prop-1-yn-1-yl)pyrimidin-4-yl)-1,4-diazepan-1-yl)-6-aminopyridazin-3-yl)phenol] yielded a DC50 of 50 to 500 nM and an inhibition at 1 µM of 30 to 70%. Besides, in test [2], the DC50 was 50 to 500 nM and the “SMARCA2 % Degradation @ 1 μM” value is “+++ (+++=>70%)”.

In test [1], `Nc1nnc(-c2ccccc2O)cc1N1CCN(c2ccnc(C#CCNC(=O)c3cnn4cccc(F)c34)n2)CC1` [Compound P-117, N-(3-(4-(4-(3-amino-6-(2-hydroxyphenyl)pyridazin-4-yl)piperazin-1-yl)pyrimidin-2-yl)prop-2-yn-1-yl)-4-fluoropyrazolo[1,5-a]pyridine-3-carboxamide] yielded a DC50 of 50 to 500 nM and an inhibition at 1 µM of 30 to 70%. Further, in test [2], the DC50 lay within 50 to 500 nM and the “SMARCA2 % Degradation @ 1 μM” value is “++ (++=30-70%)”.

With `Nc1nnc(-c2ccccc2O)cc1N1CCN(c2ccnc(C#CCNC(=O)c3nc4ccccc4s3)n2)CC1` [Compound P-118, N-(3-(4-(4-(3-amino-6-(2-hydroxyphenyl)pyridazin-4-yl)piperazin-1-yl)pyrimidin-2-yl)prop-2-yn-1-yl)benzo[d]thiazole-2-carboxamide], in test [1], the DC50 was 50 to 500 nM and the inhibition at 1 µM is 30 to 70%. Further, in test [2], the DC50 was in the range of 50 to 500 nM and the “SMARCA2 % Degradation @ 1 μM” value is “++ (++=30-70%)”.

In test [1], `Nc1nnc(-c2ccccc2O)cc1N1CC2CCC(C1)N2c1ccnc(C#CCNC(=O)c2cc3ncccn3n2)n1` [Compound P-119, N-(3-(4-(3-(3-amino-6-(2-hydroxyphenyl)pyridazin-4-yl)-3,8-diazabicyclo[3.2.1]octan-8-yl)pyrimidin-2-yl)prop-2-yn-1-yl)pyrazolo[1,5-a]pyrimidine-2-carboxamide] displayed a DC50 of 500 to 5000 nM and an inhibition at 1 µM below 30%. In test [2], the DC50 is above 5000 nM and the “SMARCA2 % Degradation @ 1 μM” value is given as “+ (+=<30%)”.

Regarding `Nc1nnc(-c2ccccc2O)cc1N1CCCN(c2ccnc(C#CCNc3cc4ncccn4n3)n2)CC1` [Compound P-120, 2-(6-amino-5-(4-(2-(3-(pyrazolo[1,5-a]pyrimidin-2-ylamino)prop-1-yn-1-yl)pyrimidin-4-yl)-1,4-diazepan-1-yl)pyridazin-3-yl)phenol], in test [1], the DC50 was 500 to 5000 nM and the inhibition at 1 µM fell in the range of 30 to 70%. In test [2], the DC50 is 500 to 5000 nM and the “SMARCA2 % Degradation @ 1 μM” value is “++ (++=30-70%)”.

In the case of `CC(C)(C)OC(=O)NCC#Cc1nccc(N2CCCN(c3cc(-c4ccccc4O)nnc3N)CC2)n1` [Compound P-121, tert-butyl (3-(4-(4-(3-amino-6-(2-hydroxyphenyl)pyridazin-4-yl)-1,4-diazepan-1-yl)pyrimidin-2-yl)prop-2-yn-1-yl)carbamate], in test [1], the DC50 lay in the range of 50 to 500 nM and the inhibition at 1 µM was above 70%. Moreover, in test [2], the DC50 was in the range of 50 to 500 nM and the “SMARCA2 % Degradation @ 1 μM” value is on record as “+++ (+++=>70%)”.

Turning to `CC(=O)NCC#Cc1nccc(N2CCCN(c3cc(-c4ccccc4O)nnc3N)CC2)n1` [Compound P-122, N-(3-(4-(4-(3-amino-6-(2-hydroxyphenyl)pyridazin-4-yl)-1,4-diazepan-1-yl)pyrimidin-2-yl)prop-2-yn-1-yl)acetamide], in test [1], the DC50 fell in the range of 500 to 5000 nM and the inhibition at 1 µM was below 30%. For the same compound, in test [2], the DC50 fell in the range of 500 to 5000 nM and the “SMARCA2 % Degradation @ 1 μM” value is on record as “++ (++=30-70%)”.

In test [1], `Nc1nnc(-c2ccccc2O)cc1N1CCC2(CCCN(c3ccnc(C#CCO)n3)C2)CC1` [Compound P-123, 2-(6-amino-5-(2-(2-(3-hydroxyprop-1-yn-1-yl)pyrimidin-4-yl)-2,9-diazaspiro[5.5]undecan-9-yl)pyridazin-3-yl)phenol] had a DC50 below 50 nM and an inhibition at 1 µM of 30 to 70%. Also, in test [2], the DC50 is 50 to 500 nM and the “SMARCA2 % Degradation @ 1 μM” value is reported as “++ (++=30-70%)”.
